How the values were obtained:
[1] = Phase 1 dose escalation study (renal clearance); conditions: human, in vivo; 12 Chinese patients, 50 mg oral on Day 1
OAT3 = biological target: T1, OAT3 (Homo sapiens, UniProt Q8TCC7); assay: Transporter substrate/inhibitor assessment, OAT3; assay type: in vitro ADME
T1 sequence (Q8TCC7 1-542): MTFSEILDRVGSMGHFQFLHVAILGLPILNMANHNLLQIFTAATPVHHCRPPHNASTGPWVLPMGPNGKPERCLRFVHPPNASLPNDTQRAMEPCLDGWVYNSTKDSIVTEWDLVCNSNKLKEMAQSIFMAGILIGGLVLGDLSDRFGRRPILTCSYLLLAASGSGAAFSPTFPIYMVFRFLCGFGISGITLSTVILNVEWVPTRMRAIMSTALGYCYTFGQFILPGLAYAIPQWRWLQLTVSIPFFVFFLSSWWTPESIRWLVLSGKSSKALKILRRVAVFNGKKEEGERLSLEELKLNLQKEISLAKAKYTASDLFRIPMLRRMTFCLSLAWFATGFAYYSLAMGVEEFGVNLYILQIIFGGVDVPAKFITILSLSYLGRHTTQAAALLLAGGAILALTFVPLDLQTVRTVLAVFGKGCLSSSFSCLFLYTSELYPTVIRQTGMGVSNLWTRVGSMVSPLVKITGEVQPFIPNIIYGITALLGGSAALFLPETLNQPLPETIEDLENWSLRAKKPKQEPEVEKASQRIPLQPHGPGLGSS

[2] = system: imatinib-resistant and imatinib-sensitive gastrointestinal stromal tumor cell lines; parameters: method as in Liu et al., 2019; conditions: imatinib-resistant and imatinib-sensitive GIST cell lines; ref Liu et al., 2019; cited from earlier work
OATP1B3 = biological target: T2, OATP1B3 (Homo sapiens, UniProt Q9NPD5); assay: Transporter substrate/inhibitor assessment, OATP1B3; assay type: in vitro ADME
T2 sequence (Q9NPD5 1-702): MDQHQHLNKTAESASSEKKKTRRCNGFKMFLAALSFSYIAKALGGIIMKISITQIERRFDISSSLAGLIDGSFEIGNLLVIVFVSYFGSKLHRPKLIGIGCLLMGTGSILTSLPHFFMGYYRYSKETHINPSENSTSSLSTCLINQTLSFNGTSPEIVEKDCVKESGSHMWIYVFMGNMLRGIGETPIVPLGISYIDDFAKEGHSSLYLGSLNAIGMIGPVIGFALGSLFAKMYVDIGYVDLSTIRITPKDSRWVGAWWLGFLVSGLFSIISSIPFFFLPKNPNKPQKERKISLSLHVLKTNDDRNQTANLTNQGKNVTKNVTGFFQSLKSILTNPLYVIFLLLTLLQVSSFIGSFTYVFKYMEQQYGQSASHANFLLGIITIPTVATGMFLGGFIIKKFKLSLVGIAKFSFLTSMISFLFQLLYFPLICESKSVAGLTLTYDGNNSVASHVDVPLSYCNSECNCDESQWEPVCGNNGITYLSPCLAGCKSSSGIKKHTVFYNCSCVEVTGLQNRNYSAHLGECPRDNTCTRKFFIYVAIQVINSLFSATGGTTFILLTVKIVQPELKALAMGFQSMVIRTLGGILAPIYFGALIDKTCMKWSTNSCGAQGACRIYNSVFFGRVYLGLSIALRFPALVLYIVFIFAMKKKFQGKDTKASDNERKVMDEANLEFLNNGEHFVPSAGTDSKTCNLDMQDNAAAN

[3] = In vitro Caco-2 cell permeability; assay type: in vitro ADME; conditions: human
Description: The first-order absorption model has different absorption rate constants (ka) and fraction available from dosage form (fa) to simulate absorption processes in fasting and fed states. […] Caco-2 (human colorectal adenocarcinoma) cells are used to model the intestinal epithelial barrier. The Simcyp (Version 19.0, Certara Inc., Sheffield, UK) minimal PBPK, which treats all organs other than the intestine and liver as a single compartment ([Rowland Yeo et al., 2010]), was selected, along with a single adjusting compartment (SAC) distribution model. The SAC is a nonphysiologic compartment that permits adjustment to the drug concentration profile in the systemic compartment ([Ke et al., 2016]).

P-gp = P-gp (Homo sapiens, UniProt P08183); assay: P-gp inhibition (Ki calculated from IC50); assay type: in vitro ADME; conditions: calculated with IC50, substrate concentration and substrate Km
CYP3A4 = CYP3A4 (Homo sapiens, UniProt P08684); conditions: recombinant enzyme
T315I-mutated CML = conditions: 40 mg QOD, 28-day cycles over 24 months, ref Jiang et al., 2022, cited from earlier work
[4] = Human mass balance study with [14C]olverembatinib (NCT04126707); assay type: in vivo
Description: After a 3-day washout period, they were pretreated with 200 mg of oral itraconazole once daily for 4 days to inhibit CYP3A4 (Days 5–8). […] After a 3-day washout, subjects were pretreated with 600 mg of oral rifampicin once daily for 7 days to induce CYP3A4 (Days 5–11). […] Blood samples were collected immediately before and after drug administration at 0.5, 1, 2, 4, 6, 8, 12, 24, 48, 72, and 96 h.

CYP2C9 = assay: in vitro; conditions: human
MATE1 = MATE1 (Homo sapiens, UniProt Q96FL8); assay: Transporter substrate/inhibitor assessment, MATE1; assay type: in vitro ADME
OAT1 = biological target: T3, OAT1 (Homo sapiens, UniProt Q4U2R8); assay: Transporter substrate/inhibitor assessment, OAT1; assay type: in vitro ADME
T3 sequence (Q4U2R8 1-563): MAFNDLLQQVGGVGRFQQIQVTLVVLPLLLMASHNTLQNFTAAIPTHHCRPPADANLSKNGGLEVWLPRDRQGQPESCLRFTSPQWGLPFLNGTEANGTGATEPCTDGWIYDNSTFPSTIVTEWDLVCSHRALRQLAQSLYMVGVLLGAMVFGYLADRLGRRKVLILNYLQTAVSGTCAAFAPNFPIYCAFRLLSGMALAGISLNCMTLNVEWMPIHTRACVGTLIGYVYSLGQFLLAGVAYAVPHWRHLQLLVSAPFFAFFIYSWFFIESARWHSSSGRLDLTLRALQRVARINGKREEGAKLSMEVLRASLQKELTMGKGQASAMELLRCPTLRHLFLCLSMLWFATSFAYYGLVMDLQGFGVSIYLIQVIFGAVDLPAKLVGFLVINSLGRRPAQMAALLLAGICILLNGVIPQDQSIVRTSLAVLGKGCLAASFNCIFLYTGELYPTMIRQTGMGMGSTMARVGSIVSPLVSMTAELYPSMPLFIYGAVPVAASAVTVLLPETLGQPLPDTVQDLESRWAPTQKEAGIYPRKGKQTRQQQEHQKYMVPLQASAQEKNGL

[5] = Log Po:w (octanol-water partition coefficient); assay type: physicochemical
Description: TABLE 1 Model development and model parameters. | column: Value

[6] = single radiolabeled 30 mg dose, healthy subjects

Chain of CYP3A4 (P08684 whole entry): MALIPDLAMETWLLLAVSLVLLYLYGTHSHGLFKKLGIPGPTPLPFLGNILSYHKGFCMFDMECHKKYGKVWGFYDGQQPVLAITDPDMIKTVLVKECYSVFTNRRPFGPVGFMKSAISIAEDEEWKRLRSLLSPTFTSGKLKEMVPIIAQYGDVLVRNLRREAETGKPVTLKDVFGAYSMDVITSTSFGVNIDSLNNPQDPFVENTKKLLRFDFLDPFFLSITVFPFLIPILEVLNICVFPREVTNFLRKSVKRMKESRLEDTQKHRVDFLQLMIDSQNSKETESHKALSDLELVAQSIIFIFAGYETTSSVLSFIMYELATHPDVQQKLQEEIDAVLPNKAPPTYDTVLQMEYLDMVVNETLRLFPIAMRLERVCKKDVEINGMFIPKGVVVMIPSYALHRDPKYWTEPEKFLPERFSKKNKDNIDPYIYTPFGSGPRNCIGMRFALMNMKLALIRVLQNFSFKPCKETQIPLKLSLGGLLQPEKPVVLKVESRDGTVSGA
Chain of MATE1 (Q96FL8 whole entry, species assumed): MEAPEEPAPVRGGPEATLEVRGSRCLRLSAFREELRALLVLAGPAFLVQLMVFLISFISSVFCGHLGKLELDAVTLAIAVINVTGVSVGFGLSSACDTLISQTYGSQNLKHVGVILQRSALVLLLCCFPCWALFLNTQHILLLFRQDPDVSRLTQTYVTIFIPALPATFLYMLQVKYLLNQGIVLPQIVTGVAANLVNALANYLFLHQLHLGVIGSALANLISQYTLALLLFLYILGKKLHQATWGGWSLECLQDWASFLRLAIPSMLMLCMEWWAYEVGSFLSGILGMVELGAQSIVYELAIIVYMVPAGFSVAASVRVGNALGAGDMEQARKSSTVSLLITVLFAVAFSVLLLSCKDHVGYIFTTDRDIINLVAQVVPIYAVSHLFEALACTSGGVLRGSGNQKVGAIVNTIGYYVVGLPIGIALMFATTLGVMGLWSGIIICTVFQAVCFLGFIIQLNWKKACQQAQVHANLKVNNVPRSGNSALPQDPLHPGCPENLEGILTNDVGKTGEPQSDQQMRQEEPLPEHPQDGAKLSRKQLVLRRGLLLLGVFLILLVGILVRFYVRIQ
Chain of P-gp (P08183 whole entry): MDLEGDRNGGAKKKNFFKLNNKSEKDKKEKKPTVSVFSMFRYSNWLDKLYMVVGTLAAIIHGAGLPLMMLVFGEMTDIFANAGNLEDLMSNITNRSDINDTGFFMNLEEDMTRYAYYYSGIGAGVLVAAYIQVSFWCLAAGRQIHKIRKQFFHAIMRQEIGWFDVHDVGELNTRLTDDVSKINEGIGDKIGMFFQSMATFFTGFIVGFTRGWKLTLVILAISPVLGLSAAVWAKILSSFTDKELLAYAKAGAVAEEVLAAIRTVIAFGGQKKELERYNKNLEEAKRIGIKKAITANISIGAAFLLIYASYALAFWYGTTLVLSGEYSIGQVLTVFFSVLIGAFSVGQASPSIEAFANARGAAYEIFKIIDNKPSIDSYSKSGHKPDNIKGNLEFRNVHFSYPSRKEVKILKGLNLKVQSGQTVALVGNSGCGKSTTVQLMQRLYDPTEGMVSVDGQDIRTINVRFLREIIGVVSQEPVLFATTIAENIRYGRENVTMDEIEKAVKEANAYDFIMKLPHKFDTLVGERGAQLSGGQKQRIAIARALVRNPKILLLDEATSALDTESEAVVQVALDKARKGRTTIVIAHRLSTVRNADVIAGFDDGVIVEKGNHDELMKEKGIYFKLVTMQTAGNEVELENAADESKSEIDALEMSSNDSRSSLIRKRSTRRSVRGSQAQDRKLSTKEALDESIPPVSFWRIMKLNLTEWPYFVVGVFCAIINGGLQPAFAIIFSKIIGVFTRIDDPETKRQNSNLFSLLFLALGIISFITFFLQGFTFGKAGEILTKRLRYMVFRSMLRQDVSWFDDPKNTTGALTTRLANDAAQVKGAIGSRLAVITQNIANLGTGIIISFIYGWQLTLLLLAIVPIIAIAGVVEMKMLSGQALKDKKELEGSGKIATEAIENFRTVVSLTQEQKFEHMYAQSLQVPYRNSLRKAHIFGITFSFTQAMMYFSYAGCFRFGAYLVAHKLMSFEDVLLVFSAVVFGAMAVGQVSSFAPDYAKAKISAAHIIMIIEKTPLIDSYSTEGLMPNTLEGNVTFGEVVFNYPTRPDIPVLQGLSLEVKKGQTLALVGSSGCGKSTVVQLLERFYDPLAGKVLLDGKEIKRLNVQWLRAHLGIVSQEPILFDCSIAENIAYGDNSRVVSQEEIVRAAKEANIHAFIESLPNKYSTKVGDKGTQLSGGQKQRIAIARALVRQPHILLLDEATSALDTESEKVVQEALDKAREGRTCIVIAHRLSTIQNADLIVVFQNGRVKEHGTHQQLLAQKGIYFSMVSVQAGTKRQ

## Cc1ccc(C(=O)Nc2ccc(CN3CCN(C)CC3)c(C(F)(F)F)c2)cc1C#Cc1cnc2[nH]ncc2c1 [olverembatinib, Olverembatinib]
[1]
  CL renal: 2.2 mL/min
OAT3
  substrate or inhibitor of OAT3: neither a substrate nor inhibitor
[2]
  antiproliferative activity compared with ponatinib: equivalent or more potent antiproliferative activity
OATP1B3
  substrate or inhibitor of OATP1B3: neither a substrate nor inhibitor
[3]
  Papp: 0.08 ×10⁻⁶ cm/s
P-gp
  Ki: 2230 nM
CYP3A4
  CLint CYP3A4: 0.2 µL/min/pmol CYP
T315I-mutated CML; CML-AP, n = 37 without MaHR at baseline
  major hematologic response (MaHR), patients: 78.4%
T315I-mutated CML; CML-CP, n = 121 without MCyR at baseline
  major cytogenetic response (MCyR), patients: 79.3%
[4]; Chinese healthy volunteers, fasting, 26.85 mg SD
  AUC Obs.: 153 h?ng/mL
[4]; male, human, plasma, oral, Chinese healthy volunteers, fasting, 26.85 mg SD
  Cmax: 8.09 ng/mL
[4]; male, human, plasma, oral, Chinese healthy volunteers, fasting, 26.85 mg SD, read-out: Tmax Obs. (median)
  Tmax: 6 h
[4]; [6]
  cleared drug unchanged in feces: About 23.95%
  eliminated as the parent drug in urine: 0.02%
[4]; single radiolabeled 30 mg dose, healthy subjects, within 96 h
  dose recovered in urine: 1.57%
[4]; single radiolabeled 30 mg dose, healthy subjects, within 216 h
  dose recovered in feces: 87.68%
CYP2C9; EC50
  EC50: 584 nM
CYP2C9; IndC50 CYP2C9 (Mean EC50)
  EC50: 454 nM
MATE1
  substrate or inhibitor of MATE1: neither a substrate nor inhibitor
OAT1
  substrate or inhibitor of OAT1: neither a substrate nor inhibitor
[5]
  Log Po:w: 3.6
